Results taken from patent US7737173B2, “Indole-3-carboxylic acid amide, ester, thioamide and thiol ester compounds bearing aryl or heteroaryl groups having sphingosine-1-phosphate (S1P) receptor antagonist biological activity” (Allergan, Inc., priority 2006, dated 2010).
Like-named read-outs stand apart in the source and are kept apart here.

Legend:
human S1P3 receptor = target: T1, human S1P3 receptor (Homo sapiens, UniProt Q99500); test: FLIPR Ca+2 assay: ability to activate or block activation of the human S1P3 receptor in T24 cells; type: cell-based
T1 construct: expressed in transfected cells
T1 sequence (Q99500 whole entry): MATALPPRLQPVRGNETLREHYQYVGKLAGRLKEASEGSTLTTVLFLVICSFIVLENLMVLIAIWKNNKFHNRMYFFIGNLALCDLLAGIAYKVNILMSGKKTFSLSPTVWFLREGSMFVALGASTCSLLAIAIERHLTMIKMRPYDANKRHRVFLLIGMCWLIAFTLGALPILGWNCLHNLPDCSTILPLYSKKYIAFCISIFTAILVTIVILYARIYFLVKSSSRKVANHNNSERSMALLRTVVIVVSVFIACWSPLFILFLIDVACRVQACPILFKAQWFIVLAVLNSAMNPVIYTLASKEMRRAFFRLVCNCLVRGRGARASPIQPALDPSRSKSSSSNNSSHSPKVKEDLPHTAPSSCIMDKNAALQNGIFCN
Description: Compounds were assessed for their ability to activate or block activation of the human S1P3 receptor in T24 cells stably expressing the human S1P3 receptor. Ten thousand cells/well were plated into 384-well poly-D-lysine coated plates one day prior to use. The growth media for the S1P3 receptor expressing cell line was McCoy's 5A medium supplemented with 10% charcoal-treated fetal bovine serum (FBS), 1% antibiotic-antimycotic and 400 μg/ml geneticin. On the day of the experiment, the cells were washed twice with Hank's Balanced Salt Solution supplemented with 20 mM HEPES (HBSS/Hepes buffer). The cells were then dye loaded with 2 uM Fluo-4 diluted in the HBSS/Hepes buffer with 1.25 mM Probenecid and incubated at 37° C. for 40 minutes. Extracellular dye was removed by washing the cell plates four times prior to placing the plates in the FLIPR (Fluorometric Imaging Plate Reader, Molecular Devices). Ligands were diluted in HBSS/Hepes buffer and prepared in 384-well microplates. The positive control, Sphingosine-1-Phosphate (SIP), was diluted in HBSS/Hepes buffer with 4 mg/ml fatty acid free bovine serum albumin. The FLIPR transferred 12.5 μl from the ligand microplate to the cell plate and took fluorescent measurements for 75 seconds, taking readings every second, and then for 2.5 minutes, taking readings every 10 seconds. Drugs were tested over the concentration range of 0.61 nM to 10,000 nM. Data for Ca^+2 responses were obtained in arbitrary fluorescence units and not translated into Ca^+2 concentrations. IC50 values were determined through a […] analysis using the Levenburg Marquardt algorithm.

perfused porcine eyes = settings: by altering paracellular permeability, IOVS 45, 2263, 2004; cited from earlier work
[1] = T24 cells stably expressing human S1P3, antagonist activity, tested 0.61 nM to 10,000 nM, read-out: S1P3 IC50
[2] = T-24, T24 cells stably expressing human S1P3, antagonist activity, value in parentheses, read-out: S1P3 (% eff.)

| Structure (SMILES) | IC50 (human S1P3 receptor) | Emax (human S1P3 receptor; T-24, read-out: S1P3 (% eff.)) | IC50 (human S1P3 receptor; [1]) | Emax (human S1P3 receptor; [2]) | decrease of outflow facility (perfused porcine eyes) |
| --- | --- | --- | --- | --- | --- |
| Cc1c(C(=O)NCc2cc(F)cc(F)c2)c2cc(O)ccc2n1Cc1ccccc1 [Compound 3, 1-Benzyl-5-hydroxy-2-methyl-1H-indole-3-carboxylic Acid, 3,5-Difluorobenzylamide] | 510 nM | 53% |  |  |  |
| Cc1c(C(=O)NCc2ccc(F)c(F)c2)c2cc(O)ccc2n1Cc1cccs1 [Compound 4, 5-Hydroxy-2-methyl-1-thiophen-2-ylmethyl-1H-indole-3-carboxylic Acid, 3,4-Difluorobenzylamide] | 1700 nM | 66% |  |  |  |
| CCCCn1c(C)c(C(=O)NCc2cc(F)cc(F)c2)c2cc(O)ccc21 [Compound 6, 1-Butyl-5-hydroxy-2-methyl-1H-indole-3-carboxylic Acid, 3,5-Difluoro-benzylamide] | 2500 nM | 55% |  |  |  |
| Cc1c(C(=O)NCc2ccc(F)c(F)c2)c2cc(O)ccc2n1Cc1ccco1 [Compound 9, 1-Furan-2-ylmethyl-5-hydroxy-2-methyl-1H-indole-3-carboxylic Acid, 3,4-Difluorobenzylamide] | 2900 nM | 97% |  |  |  |
| Cc1c(C(=O)NCc2cc(F)cc(F)c2)c2cc(O)ccc2n1Cc1cccs1 [Compound 11, 5-Hydroxy-2-methyl-1-thiophen-2-ylmethyl-1H-indole-3-carboxylic Acid, 3,5-Difluorobenzylamide] | 1800 nM | 67% |  |  |  |
| Cc1c(C(=O)NCc2cc(F)cc(F)c2)c2cc(O)ccc2n1Cc1ccco1 [Compound 12, 1-Furan-2-ylmethyl-5-hydroxy-2-methyl-1H-indole-3-carboxylic Acid 3,5-Difluorobenzylamide] | 950 nM | 77% |  |  |  |
| Cc1c(C(=O)NCc2ccc(F)c(F)c2)c2cc(O)ccc2n1Cc1ccccc1 [Compound 13, 1-Benzyl-5-hydroxy-2-methyl-1H-indole-3-carboxylic Acid, 3,4-Difluoro-benzylamide] | 1500 nM | 84% |  |  |  |
| Cc1c(C(=O)NCc2cccc(F)c2)c2cc(O)ccc2n1Cc1cccs1 [Compound 14, 5-Hydroxy-2-methyl-1-thiophen-2-ylmethyl-1H-indole-3-carboxylic Acid, 3-Fluorobenzylamide] | 3200 nM | 85% |  |  |  |
| Cc1c(C(=O)NCc2ccccc2)c2cc(O)ccc2n1Cc1cccs1 [Compound 15, 5-Hydroxy-2-methyl-1-thiophen-2-ylmethyl-1H-indole-3-carboxylic Acid, Benzylamide] | 1600 nM | 48% |  |  |  |
| COc1cccc(CNC(=O)c2c(C)n(Cc3cccs3)c3ccc(O)cc23)c1 [Compound 17, 5-Hydroxy-2-methyl-1-thiophen-2-ylmethyl-1H-indole-3-carboxylic Acid, 3-Methoxybenzylamide] | 910 nM | 33% |  |  |  |
| CCCCn1c(C)c(C(=O)NCc2cccc(OC)c2)c2cc(O)ccc21 [Compound 18, 1-Butyl-5-hydroxy-2-methyl-1H-indole-3-carboxylic Acid, 3-Methoxy-benzylamide] | 5100 nM | 42% |  |  |  |
| Cc1c(C(=O)NCc2ccc(F)cc2)c2cc(O)ccc2n1Cc1cccs1 [Compound 19, 5-Hydroxy-2-methyl-1-thiophen-2-ylmethyl-1H-indole-3-carboxylic Acid, 4-Fluorobenzylamide] | 2700 nM | 72% |  |  |  |
| Cc1ccc(CNC(=O)c2c(C)n(Cc3cccs3)c3ccc(O)cc23)cc1 [Compound 20, 5-Hydroxy-2-methyl-1-thiophen-2-ylmethyl-1H-indole-3-carboxylic Acid, 4-Methylbenzylamide] | 2500 nM | 71% |  |  |  |
| Cc1c(C(=O)NCc2cccc(Cl)c2)c2cc(O)ccc2n1Cc1cccs1 [Compound 21, 5-Hydroxy-2-methyl-1-thiophen-2-ylmethyl-1H-indole-3-carboxylic Acid, 3-Chlorobenzylamide] | 1200 nM | 38% |  |  |  |
| Cc1c(C(=O)NCc2ccc(Cl)cc2)c2cc(O)ccc2n1Cc1cccs1 [Compound 22, 5-Hydroxy-2-methyl-1-thiophen-2-ylmethyl-1H-indole-3-carboxylic Acid, 4-Chlorobenzylamide] | 2500 nM | 83% |  |  |  |
| COc1ccccc1CNC(=O)c1c(C)n(Cc2cccs2)c2ccc(O)cc12 [Compound 23, 5-Hydroxy-2-methyl-1-thiophen-2-ylmethyl-1H-indole-3-carboxylic Acid, 2-methoxybenzylamide] | 2400 nM | 23% |  |  |  |
| CCc1c(C(=O)NCc2ccc(F)c(F)c2)c2cc(O)ccc2n1Cc1ccccc1 [Compound 25, 1-Benzyl-2-ethyl-5-hydroxy-1H-indole-3-carboxylic Acid, 3,4-Difluoro-benzylamide] | 700 nM | 98% |  |  |  |
| CCc1c(C(=O)NCc2cccc(OC)c2)c2cc(O)ccc2n1Cc1ccccc1 [Compound 26, 1-Benzyl-2-ethyl-5-hydroxy-1H-indole-3-carboxylic Acid, 3-Methoxy-benzylamide] | 1900 nM | 97% |  |  |  |
| CC(C)c1c(C(=O)NCc2ccc(F)c(F)c2)c2cc(O)ccc2n1Cc1ccccc1 [Compound 28, 1-Benzyl-5-hydroxy-2-isopropyl-1H-indole-3-carboxylic Acid, 3,4-Difluorobenzamide] | 55 nM | 98% |  |  |  |
| Cc1c(C(=O)NCc2ccc(F)c(F)c2)c2cc(O)ccc2n1-c1ccccc1 [Compound 29, 5-Hydroxy-2-methyl-1-phenyl-1H-indole-3-carboxylic Acid 3,4-Difluoro-benzylamide] |  |  | 9700 nM | 76% |  |
| Cc1c(C(=O)NCc2ccc(F)c(F)c2)c2cc(O)ccc2n1-c1ccccn1 [Compound 30, 5-Hydroxy-2-methyl-1-pyridin-2-yl-1H-indole-3-carboxylic Acid 3,4-Difluoro-benzylamide] |  |  | 1500 nM | 23% |  |
| Cc1c(C(=O)NCc2ccc(F)c(F)c2)c2cc(O)ccc2n1-c1cccs1 [Compound 31, 5-Hydroxy-2-methyl-1-thiophen-2-yl-1H-indole-3-carboxylic Acid 3,4-Difluorobenzylamide] |  |  | 2500 nM | 81% |  |
| CCc1c(C(=O)NCc2cc(F)cc(F)c2)c2cc(O)ccc2n1Cc1ccccc1 [Compound 32, 1-Benzyl-2-ethyl-5-hydroxy-1H-indole-3-carboxylic Acid 3,5-Difluoro-benzylamide] | 280 nM | 97% |  |  |  |
| CC(C)c1c(C(=O)NCc2cc(F)cc(F)c2)c2cc(O)ccc2n1Cc1ccccc1 [Compound 33, 1-Benzyl-5-hydroxy-2-isopropyl-1H-indole-3-carboxylic Acid, 3,5-difluorobenzylamide] | 110 nM | 99% |  |  |  |
| COc1cccc(CNC(=O)c2c(C(C)C)n(Cc3ccccc3)c3ccc(O)cc23)c1 [Compound 34, 1-Benzyl-5-hydroxy-2-isopropyl-1H-indole-3-carboxylic Acid, 3-methoxybenzylamide] | 410 nM | 98% |  |  |  |
| O=C(NCc1cc(F)cc(F)c1)c1c(-c2ccccc2)n(Cc2ccccc2)c2ccc(O)cc12 [Compound 48, 1-Benzyl-5-hydroxy-2-phenyl-1H-indole-3-carboxylic Acid, 3,5-Difluoro-benzylamide] | 880 nM | 98% |  |  |  |
| CCCCCCCCCCCCC/C=C/[C@@H](O)[C@@H](N)COP(=O)(O)O [Compound S1P, Sphingosine-1-Phosphate] |  |  |  |  | > 30% |
